Assay results taken from patent US20220160812A1, “A PHARMACEUTICALLY ACTIVE SUBSTANCE” (Cytopharma GmbH, priority 2019, published 2022).

Tested on: BxPC-3 human pancreatic cancer cells
Test: cell vitality FACS analysis (region R-1, FSC/SSC), BxPC-3 cells
Assay type: cell-based
Conditions: BxPC-3, Protocol A, about 24 hours, FIG. 8
Experimental: To transfer adherent cells (A375 and BxPC-3 cells) after culture, cells are washed twice with PBS. To detach the cells, the enzyme biotase is used according to the manufacturer's instructions. For this purpose, after washing with PBS, the cells are mixed with biotase (5 ml of biotase solution per 75 cm^2 surface of the cell culture bottles) and incubated for 5 min at 37 degrees Celsius, and the biotase is separated by centrifugation. Cells cultivated in suspension (MEC-1 and lymphocytes) were transferred by dilution. The cells are suspended in culture medium and counted, each time 1.5×10^5 cells/cm^2 are seeded in 48-well plates and cultured for between 1.5 and 24 hours at 37 degrees Celsius, 5% CO2. Peptides are pre-diluted from stock solution with culture medium and 200 μl of peptide solution added so that final concentrations of 30 to 500 μM peptide are present in at most 1% (v/v) DMSO. As control solutions, culture medium without peptide (DMSO-containing) in culture medium or etoposide solution is added. After incubating the cells for several hours, the cell supernatant is transferred to a FACS tube for each batch and, after washing the cells with PBS, the wash solution is added. Then the cells are incubated with 200 μl of biotase solution for 10 min, 37° C., the cells with the biotase are also transferred to the FACS tube and the cells are collected by centrifugation for 5 min. The cell pellet is suspended in 500 μl of serum-free culture medium, then 1.5 ml of cold 80% ethanol (ethanol/PBS-80/20, v/v, stored at −20° C.) is added, the FACS tubes sealed and stored at −20 degrees Celsius for 15 to 18 h. Thereafter, the cells are centrifuged for 5 minutes at 120 g, suspended after removal of the supernatant in 2 ml PBS and incubated at 37 degrees Celsius for 30 minutes. After re-centrifugation, the cells are suspended in 0.5 ml DAPI solution and incubated for 15 min at 20 degrees Celsius in the dark. Thereafter, the cells are stored dark for a maximum of four hours in an ice bath, followed by the FACS analysis. […]
For suspension cells (MEC-1 and lymphocytes/PBMC) and for adherent cells analyzed according to Protocol A, FACS analysis to determine subG1 cell cycle and vital cell fractions was done on a Becton Dickinson LSR Fortessa flow cytometer. The analysis by FACS including subG1 and vital cell analysis according to protocol B was performed with a Cytomics FC 500 MPL flow cytometer from Beckman Coulter.
Changes of the cell form during cell death by apoptosis are documented in the literature (Lizard et al. 1995; Taga et al. 2000; Vermes et al., 2000). The protocols for cell cultivation, treatment and preparation of the cells before flow cytometry is detailed in separate examples. Cell suspensions of cell lines A375, BxPC-3, MEC-1 or of primary lymphocytes (see separate example of lymphocyte preparation) are analyzed by flow cytometry. The data are further analyzed by using the program “Flowing Software 2”. The data of light scattering are drawn in a two-dimensional FSC/SSC plot. Since the position in the FSC/SSC plot of apoptotic cells changes relative to non-apoptotic cells (Vermes et al., 2000), a region (R-1) is drawn representing mainly non-apoptotic cells and excluding cells with both low FSC and low SSC values and excluding cells with high values of FSC and/or SSC (FIG. 1). The regions are individually selected for each cell type (A375, BxPC-3, MEC-1 and primary lymphocytes). The percentage of untreated non-apoptotic cells in the region R-1 relative to total cells is set to 100%, representing 100% vital cells. The fraction (%) of cells in R-1 relative to the total number of cells in case of cell treatment by certain peptides or by cytotoxic drugs results in cell vitality, below 100%, thereby indicating a loss of cell vitality by the treatment. […]

[1] = all concentrations (50, 100, 200 μM)

Substance | decrease of cell vitality, comparison in words (50 μM) | efficiency (decrease of cell vitality) in view of Peptide SEQ C1 (50 μM) | decrease of cell vitality, efficiency in words (100 μM) | decrease of cell vitality, efficiency in words (200 μM) | efficiency (decrease of cell vitality) in view of Peptide SEQ C1 (100 and 200 μM) | decrease of cell vitality, comparison in words [1]
k-s-q-t-v-q-k-w-m-v-v-y-f-r-k [SEQID No 36] | clear improvement over peptides SEQID NO 27, SEQID NO 37 and SEQID NO 29 | at least fourfold | very high efficiency | astonishing high efficiency | at least sevenfold | significantly greater decrease than the control peptide (C1)
s-q-t-v-q-k-w-m-v-v-y-f-r-k [SEQID No 37] | – | – | – | astonishing high efficiency | – | significantly greater decrease than the control peptide (C1)
k-s-q-t-v-k-k-w-m-v-v-y-f-r-k [SEQID No 29] | – | – | very high efficiency | astonishing high efficiency | – | significantly greater decrease than the control peptide (C1)
